Reference: ChEMBL document CHEMBL3991601, “The target landscape of clinical kinase drugs” (Science, 2017)
Activity calls are given as the source filed them.

How the values were obtained:
[1] = biological target: T1, ATP-dependent RNA helicase DDX42 (Homo sapiens, UniProt Q86XP3)
T1 sequence (Q86XP3 whole entry): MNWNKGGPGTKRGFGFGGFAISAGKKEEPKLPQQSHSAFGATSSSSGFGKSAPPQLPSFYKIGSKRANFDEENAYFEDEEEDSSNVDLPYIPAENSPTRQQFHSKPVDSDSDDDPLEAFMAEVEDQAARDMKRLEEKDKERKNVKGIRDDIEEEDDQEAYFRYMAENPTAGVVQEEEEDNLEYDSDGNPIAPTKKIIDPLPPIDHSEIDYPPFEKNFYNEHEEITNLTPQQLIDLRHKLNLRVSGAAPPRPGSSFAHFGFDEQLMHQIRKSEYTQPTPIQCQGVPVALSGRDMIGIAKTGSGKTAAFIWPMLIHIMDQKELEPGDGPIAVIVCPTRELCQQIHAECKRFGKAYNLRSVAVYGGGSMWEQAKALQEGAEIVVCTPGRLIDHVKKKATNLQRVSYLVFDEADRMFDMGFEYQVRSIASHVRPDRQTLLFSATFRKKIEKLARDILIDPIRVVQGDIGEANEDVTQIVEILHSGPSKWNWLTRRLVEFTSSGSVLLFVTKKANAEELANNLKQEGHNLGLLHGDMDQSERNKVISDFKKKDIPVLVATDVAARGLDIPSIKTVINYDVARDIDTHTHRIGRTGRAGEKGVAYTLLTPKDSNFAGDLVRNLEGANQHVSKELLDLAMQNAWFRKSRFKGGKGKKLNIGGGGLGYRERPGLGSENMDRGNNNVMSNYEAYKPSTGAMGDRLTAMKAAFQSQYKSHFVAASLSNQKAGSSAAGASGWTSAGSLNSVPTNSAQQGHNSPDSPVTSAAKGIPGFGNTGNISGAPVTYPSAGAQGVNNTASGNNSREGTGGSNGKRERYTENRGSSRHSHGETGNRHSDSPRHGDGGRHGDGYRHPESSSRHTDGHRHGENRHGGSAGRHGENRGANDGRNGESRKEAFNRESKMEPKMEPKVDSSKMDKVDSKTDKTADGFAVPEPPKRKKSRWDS

[2] = biological target: Serine/threonine-protein kinase N2 (Homo sapiens, UniProt Q16513)
Chain of Serine/threonine-protein kinase N2 (Q16513 whole entry): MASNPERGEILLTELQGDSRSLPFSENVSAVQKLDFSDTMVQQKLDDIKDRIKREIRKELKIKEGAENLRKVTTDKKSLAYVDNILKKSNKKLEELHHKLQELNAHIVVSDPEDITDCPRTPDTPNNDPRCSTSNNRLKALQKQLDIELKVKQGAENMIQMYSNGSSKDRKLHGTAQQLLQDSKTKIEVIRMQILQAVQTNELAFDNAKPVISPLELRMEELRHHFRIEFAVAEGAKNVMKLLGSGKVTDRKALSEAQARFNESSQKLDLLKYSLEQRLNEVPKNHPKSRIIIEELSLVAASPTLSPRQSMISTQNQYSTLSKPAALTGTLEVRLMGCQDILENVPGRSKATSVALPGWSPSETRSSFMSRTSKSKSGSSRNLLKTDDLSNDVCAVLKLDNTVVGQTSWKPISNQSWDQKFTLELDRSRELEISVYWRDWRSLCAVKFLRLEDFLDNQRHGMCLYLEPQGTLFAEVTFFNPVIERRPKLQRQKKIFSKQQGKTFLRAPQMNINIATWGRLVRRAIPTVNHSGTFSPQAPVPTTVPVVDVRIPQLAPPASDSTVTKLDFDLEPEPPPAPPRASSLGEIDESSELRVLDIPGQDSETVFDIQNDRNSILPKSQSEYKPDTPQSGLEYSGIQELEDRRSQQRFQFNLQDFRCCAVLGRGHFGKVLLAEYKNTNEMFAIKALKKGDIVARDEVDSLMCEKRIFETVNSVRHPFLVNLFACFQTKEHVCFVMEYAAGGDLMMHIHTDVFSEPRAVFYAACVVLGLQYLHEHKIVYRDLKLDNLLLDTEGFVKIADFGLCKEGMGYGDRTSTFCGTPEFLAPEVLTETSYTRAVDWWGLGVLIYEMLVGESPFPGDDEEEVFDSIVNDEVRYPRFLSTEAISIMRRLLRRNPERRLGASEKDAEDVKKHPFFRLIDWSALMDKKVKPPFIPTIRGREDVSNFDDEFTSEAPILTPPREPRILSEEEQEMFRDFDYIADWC

Rab-like protein 3 = biological target: T2, Rab-like protein 3 (Homo sapiens, UniProt Q5HYI8)
T2 sequence (Q5HYI8 whole entry): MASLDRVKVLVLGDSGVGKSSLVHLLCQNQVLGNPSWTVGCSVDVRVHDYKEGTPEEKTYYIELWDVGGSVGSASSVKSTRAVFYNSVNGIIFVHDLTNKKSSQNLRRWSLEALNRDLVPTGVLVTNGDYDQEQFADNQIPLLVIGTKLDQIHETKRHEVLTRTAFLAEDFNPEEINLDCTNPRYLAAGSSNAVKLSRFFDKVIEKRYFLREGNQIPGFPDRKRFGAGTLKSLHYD

[3] = biological target: T3, Exosome RNA helicase MTR4 (Homo sapiens, UniProt P42285)
T3 sequence (P42285 whole entry): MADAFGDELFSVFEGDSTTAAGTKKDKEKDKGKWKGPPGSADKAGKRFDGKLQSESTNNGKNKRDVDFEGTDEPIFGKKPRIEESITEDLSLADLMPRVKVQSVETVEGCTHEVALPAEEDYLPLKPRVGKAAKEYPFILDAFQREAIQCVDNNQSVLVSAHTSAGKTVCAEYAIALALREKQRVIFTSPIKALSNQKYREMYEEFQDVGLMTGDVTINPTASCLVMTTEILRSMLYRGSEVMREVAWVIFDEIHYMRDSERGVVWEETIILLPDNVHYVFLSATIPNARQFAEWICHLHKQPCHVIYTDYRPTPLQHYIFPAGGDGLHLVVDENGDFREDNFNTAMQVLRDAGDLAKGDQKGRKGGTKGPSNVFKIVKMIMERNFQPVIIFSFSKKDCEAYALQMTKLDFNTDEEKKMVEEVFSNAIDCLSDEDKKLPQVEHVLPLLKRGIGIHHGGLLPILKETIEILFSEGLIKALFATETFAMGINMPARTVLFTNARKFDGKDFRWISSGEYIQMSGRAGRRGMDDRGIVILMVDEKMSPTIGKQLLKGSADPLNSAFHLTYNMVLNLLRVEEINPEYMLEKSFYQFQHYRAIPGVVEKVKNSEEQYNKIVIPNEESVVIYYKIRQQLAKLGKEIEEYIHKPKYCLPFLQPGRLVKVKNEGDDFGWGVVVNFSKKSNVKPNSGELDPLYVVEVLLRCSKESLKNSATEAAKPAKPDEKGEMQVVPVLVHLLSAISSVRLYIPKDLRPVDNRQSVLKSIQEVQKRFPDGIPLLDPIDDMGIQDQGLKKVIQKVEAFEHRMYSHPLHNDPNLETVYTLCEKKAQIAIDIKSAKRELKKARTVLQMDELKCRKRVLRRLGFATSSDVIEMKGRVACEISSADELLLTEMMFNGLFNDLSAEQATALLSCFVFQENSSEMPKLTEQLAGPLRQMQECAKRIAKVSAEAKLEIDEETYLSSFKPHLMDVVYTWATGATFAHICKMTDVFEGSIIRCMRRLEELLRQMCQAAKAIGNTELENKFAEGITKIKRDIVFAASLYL

[4] = biological target: T4, Tyrosine--tRNA ligase, cytoplasmic (Homo sapiens, UniProt P54577)
T4 sequence (P54577 whole entry): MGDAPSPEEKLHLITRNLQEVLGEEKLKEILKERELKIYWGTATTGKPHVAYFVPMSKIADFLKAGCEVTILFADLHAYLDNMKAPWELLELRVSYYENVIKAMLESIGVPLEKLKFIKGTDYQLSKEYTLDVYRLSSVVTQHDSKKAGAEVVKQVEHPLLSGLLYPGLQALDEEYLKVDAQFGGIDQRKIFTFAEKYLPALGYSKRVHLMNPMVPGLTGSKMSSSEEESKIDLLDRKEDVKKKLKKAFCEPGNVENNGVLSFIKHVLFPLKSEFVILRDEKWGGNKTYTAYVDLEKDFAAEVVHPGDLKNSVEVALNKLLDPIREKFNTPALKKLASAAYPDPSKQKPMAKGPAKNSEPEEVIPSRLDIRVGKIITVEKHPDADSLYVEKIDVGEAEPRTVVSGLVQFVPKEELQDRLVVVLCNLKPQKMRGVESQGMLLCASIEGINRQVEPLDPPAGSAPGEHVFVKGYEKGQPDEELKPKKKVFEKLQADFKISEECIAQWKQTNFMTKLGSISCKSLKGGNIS
Further: in the data inactive means no Kd found up to 30 µM.

Row | SMILES | Kd [1] | Kd [2] | Kd (Rab-like protein 3) | Kd [3] | Kd [4]
1 | COc1cc([C@@H]2c3cc4c(cc3[C@H](O)[C@H]3COC(=O)[C@@H]23)OCO4)cc(OC)c1OC [AXL-1717] | > 30 µM (inactive) | > 30 µM (inactive) | > 30 µM (inactive) | > 30 µM (inactive) | > 30 µM (inactive)
2 | CCn1c(C(=O)N(C2CC2)C2CC2)cc2c3c(ncn3C)c(Nc3cc(C)n(C)n3)nc21 [BMS-911543] | > 30 µM (inactive) | > 30 µM (inactive) | > 30 µM (inactive) | > 30 µM (inactive) | > 30 µM (inactive)
3 | COc1cc2ncnc(Oc3cccc(NC(=O)Nc4cc(C(C)(C)C(F)(F)F)on4)c3)c2cc1OC [CEP-32496] | > 30 µM (inactive) | > 30 µM (inactive) | > 30 µM (inactive) | > 30 µM (inactive) | > 30 µM (inactive)
4 | Cc1cc(Nc2ncc(Cl)c(Nc3ccccc3S(=O)(=O)C(C)C)n2)c(OC(C)C)cc1C1CCNCC1 [CERITINIB] | > 30 µM (inactive) | > 30 µM (inactive) | > 30 µM (inactive) | > 30 µM (inactive) | > 30 µM (inactive)
5 | COCC(=O)NC/C=C/c1ccc2ncnc(Nc3ccc(Oc4ccc(C)nc4)c(C)c3)c2c1 [CP-724714] | > 30 µM (inactive) | > 30 µM (inactive) | > 30 µM (inactive) | > 30 µM (inactive) | > 30 µM (inactive)
6 | CC(C)(C)c1nc(-c2cccc(NS(=O)(=O)c3c(F)cccc3F)c2F)c(-c2ccnc(N)n2)s1 [DABRAFENIB] | > 30 µM (inactive) | > 30 µM (inactive) | > 30 µM (inactive) | > 30 µM (inactive) | > 30 µM (inactive)
7 | O=C(Nc1nc2cccc(-c3ccc(CN4CCS(=O)(=O)CC4)cc3)n2n1)C1CC1 [FILGOTINIB] | > 30 µM (inactive) | > 30 µM (inactive) | > 30 µM (inactive) | > 30 µM (inactive) | > 30 µM (inactive)
8 | Cc1cccc(-c2nn3c(c2-c2ccnc4ccc(C(N)=O)cc24)CCC3)n1 [GALUNISERTIB] | > 30 µM (inactive) | > 30 µM (inactive) | > 30 µM (inactive) | > 30 µM (inactive) | > 30 µM (inactive)
9 | O=C(Nc1cc(C(F)(F)F)cc(C(F)(F)F)c1)c1cc(Cl)ccc1O [IMD-0354] | > 30 µM (inactive) | > 30 µM (inactive) | > 30 µM (inactive) | > 30 µM (inactive) | > 30 µM (inactive)
10 | NC1(c2ccc(-c3nc4ccn5c(=O)[nH]nc5c4cc3-c3ccccc3)cc2)CCC1 [MK-2206] | > 30 µM (inactive) | > 30 µM (inactive) | > 30 µM (inactive) | > 30 µM (inactive) | > 30 µM (inactive)

Other lines, results leading:

Row | Kd [1] | Kd [2] | Kd (Rab-like protein 3) | Kd [3] | Kd [4] | SMILES
11 | > 30 µM (inactive) | > 30 µM (inactive) | > 30 µM (inactive) | > 30 µM (inactive) | > 30 µM (inactive) | Nc1ncnc2c1c(-c1cccc(OCc3ccccc3)c1)cn2[C@H]1C[C@@H](CN2CCC2)C1 [AEW-541]
12 | > 30 µM (inactive) | > 30 µM (inactive) | > 30 µM (inactive) | > 30 µM (inactive) | > 30 µM (inactive) | Cc1csc(-c2nnc(Nc3ccc(Oc4ncccc4-c4ccnc(N)n4)cc3)c3ccccc23)c1 [AMG-900]
13 | > 30 µM (inactive) | 2.77 µM (active) | > 30 µM (inactive) | > 30 µM (inactive) | > 30 µM (inactive) | O=C(Nc1c[nH]nc1-c1nc2cc(CN3CCOCC3)ccc2[nH]1)NC1CC1 [AT-9283]
14 | > 30 µM (inactive) | > 30 µM (inactive) | > 30 µM (inactive) | > 30 µM (inactive) | > 30 µM (inactive) | C=CC(=O)Nc1cc2c(Nc3ccc(F)c(Cl)c3)ncnc2cc1C#CC(C)(C)N1CCN(C)CC1 [AV-412 FREE BASE]
15 | > 30 µM (inactive) | > 30 µM (inactive) | > 30 µM (inactive) | > 30 µM (inactive) | > 30 µM (inactive) | Cn1cnc2c(F)c(Nc3ccc(Br)cc3F)c(C(=O)NOCCO)cc21 [BINIMETINIB]
16 | > 30 µM (inactive) | > 30 µM (inactive) | > 30 µM (inactive) | > 30 µM (inactive) | > 30 µM (inactive) | COc1c(OCCCN2CCOCC2)ccc2c1N=C(NC(=O)c1cnc(N)nc1)N1CCN=C21 [COPANLISIB]
17 | > 30 µM (inactive) | > 30 µM (inactive) | > 30 µM (inactive) | > 30 µM (inactive) | > 30 µM (inactive) | C#Cc1cccc(Nc2ncnc3cc(OC)c(OCCCCCCC(=O)NO)cc23)c1 [CUDC-101]
18 | > 30 µM (inactive) | > 30 µM (inactive) | > 30 µM (inactive) | > 30 µM (inactive) | > 30 µM (inactive) | Cc1nc2cc(-n3ncc(C(=O)c4cc5ccccc5[nH]4)c3N)ccc2[nH]1 [FGFR INHIBITOR DEBIO 1347]
19 | > 30 µM (inactive) | > 30 µM (inactive) | > 30 µM (inactive) | > 30 µM (inactive) | > 30 µM (inactive) | CCn1cc(-c2ccnc3[nH]c(-c4cccc(CN(C)C)c4)cc23)c(-c2ccc(NC(=O)N(C)C)cc2)n1 [GSK-1070916]
20 | > 30 µM (inactive) | > 30 µM (inactive) | > 30 µM (inactive) | > 30 µM (inactive) | > 30 µM (inactive) | CNC(=O)c1nn(C)c2c1C(C)(C)Cc1cnc(Nc3ccc(N4CCN(C)CC4)cc3)nc1-2 [MILCICLIB]
21 | > 30 µM (inactive) | > 30 µM (inactive) | > 30 µM (inactive) | > 30 µM (inactive) | > 30 µM (inactive) | CN(C[C@@H]1COCCO1)S(=O)(=O)Nc1ccc2ccc3ncc(-c4cnn(C)c4)cc3c(=O)c2c1 [MK-2461]
22 | > 30 µM (inactive) | > 30 µM (inactive) | > 30 µM (inactive) | > 30 µM (inactive) | > 30 µM (inactive) | Cn1cc(-c2cnc3ccc4ccc(CS(=O)(=O)NCc5ccccn5)cc4c(=O)c3c2)cn1 [MK-8033]
